Source: US11612586B2, “Indole regulation of antigen presenting cells” (THE TEXAS A&M UNIVERSITY SYSTEM, priority 2016, dated 2023)

Legend:
Assay type in all cases: cell-based, mouse
[1] = test system: Th2 cells; experiment: Th2 differentiation in DC-T cell co-culture; settings: co-culture with DCs conditioned with indole
Procedure: (§1) FIGS. 19A-19C graphically illustrate that indole-conditioned DCs inhibit Th1, Th2, and Th17 differentiation. Naïve CD4+CD25-T cells from OT-II TCR transgenic mice were isolated by column purification. Naïve T cells were then co-cultured with OVA323-339 peptide-loaded BMDCs for 72 hours in the presence or absence of lineage-skewing cytokines (described in methods). BMDCs were previously treated with indole, RA, or DMF from day 3. For the last 5 hours of culture, T cells were restimulated with PMA and ionomycin in the presence of Golgiplug, followed by intracellular staining. Cytokine production was determined to assess differentiation of Th1 (FIG. 19A), Th2 (FIG. 19B), and Th17 CD4+T (FIG. 19C) cells. Mean of three independent experiments. * indicates p<0.05 for one-way ANOVA followed by Dunnett's post-test.
(§2) In order to determine whether the indole-conditioned DC induction of Tregs was specific to this lineage, additional T cell fates were quieried. Activated CD4+T helper cells are typically divided into the subsets Th1, Th2, Th17, and Treg, based on their expression of transcription factors and pattern of cytokine secretion. The antigen-specific co-culture system was used to investigate these remaining traditional T cell lineages with the addition of an endpoint PMA/Ionomycin stimulation to induce cytokine secretion. […]

[2] = test system: Th17 cells; experiment: Th17 differentiation in DC-T cell co-culture; settings: co-culture with DCs conditioned with indole, Th17-skewing cytokines present
Procedure: as §1, §2

[3] = test system: Akt; experiment: phospho-Akt in BMDCs, flow cytometry
Procedure: Flow cytometric analysis was performed on BMDCs conditioned with indole from day 3 of culture and subsequently stimulated with LPS (5 ug/ml) for the given times. Cells were stained for phospho-Akt and analyzed by flow cytometry.
Flow cytometric analysis was performed on BMDCs from WT or AhrKO mice cultured in the presence of indole (1 mM) from day 3. DCs were stimulated with LPS (5 ug/ml) for the given times and stained for phospho-Akt, which was detected by flow cytometry. Percentage of pAkt-positive DCs indicated. Representative data is from one of three independent experiments.
Another central mediator of cellular signaling is the serine/threonine kinase, Akt (also referred to as protein kinase B), which regulates cellular processes including metabolism, growth, proliferation, and survival. The Akt pathway is activated by numerous receptor tyrosine kinases, cytokine receptors, G-protein-coupled receptors, and other molecules which activate the lipid kinase PI3K and result in production of phosphatidylinositol (3,4,5)-trisphosphate (PIPS). This second messenger acts as a docking site at the plasma membrane for Akt where phosphorylation and activation occurs. Akt is located upstream of NF-kB and can induce NF-kB signaling via phosphorylation of IKKα and Tp12. The effect of indole on Akt phosphorylation was assessed to determine whether indole's inhibition of NF-kB might be a secondary effect due to modulation of an upstream target.
The inventors performed a series of assays where bone marrow derived macrophages (BMDMs), bone marrow derived dendritic cells (BMDCs), and splenic dendritic cells (splenic DCs), were exposed to a series of TDMMs, including indole, indole-3-acetate (I3AT), 5-hydroxyindole (5HI), and indole-3-pyruvate (I3P), as well as indole-3-carbinol (I3C; a plant derived compound) to be used for a positive control (1 mM for 24 hours). The BMDMs and BMDCs were stimulated with LPS for 4 hours and assayed at day 7 for expression of various pro-inflammatory cytokines. In a similar assay, the BMDMs and BMDCs were stimulated with LPS or CpG, respectively, for 15 minutes and assayed for pAKT and pERK signaling, which is a reflection of pro-inflammatory response.

c1ccc2[nH]ccc2c1 [Indole, indole] was tested. Which “development of Th2 lineage” value [1] did it give?
Its value is “stark inhibition”.

What about the “Th17 differentiation, rate of T cells” value [2] of the same compound?
Its value is “less than 0.5%”.

What about the pAKT ([3]; BMDCs, 1 mM TDMM 24 hours, CpG (5 uM) 15 minutes) of the same compound?
Its pAKT is “↓↓”.

And the “reduction of phospho-Akt” value ([3]; BMDCs, 1 mM indole, 30 minutes post-LPS stimulation)?
The value was “over 50%”.

What about the “phospho-Akt in the absence of external stimulation” value ([3]; BMDCs, indole versus controls, unstimulated) of the same compound?
Its value is “No difference”.

What about the “inhibition of Akt phospho-signaling, WT versus AhR−/−” value ([3]; indole-DCs generated from WT or AhR−/− bone marrow) of the same compound?
The value was “nearly equivalent inhibition”.
